Measurements taken from US9289517B2 (COMMISSARIAT A L'ENERGIE ATOMIQUE ET AUX ENERGIES …, priority 2008, dated 2016).

Legend:
[1] = prior-art statement; tissue autofluorescence typically 0.3-0.4 ns; cited from earlier work
[2] = Fluorescence level measured under optical device (capillaries); conditions: approximately 25 minutes after first measurement; 2.5 nmoles ICG in water, 0.5 nmoles as nanoemulsions
[3] = Behaviour in isotonic medium (154 mM sodium chloride); type: physicochemical
[4] = Fluorescence quantum yield F; type: physicochemical; conditions: directly, 10 and 40 days after dialysis

indocyanine green [ICG]
fluorescence lifetime of ICG [1]: 0.5 ns | fluorescence level over time [2]: reduction over time of the fluorescence level | behaviour in isotonic medium [3]: flocculates | stability of quantum yield over time [4]: the quantum yield remains stable over time, unlike that of free ICG in water
